Measurements reported in US20170096422A1, “HETEROCYCLIC COMPOUND” (Takeda Pharmaceutical Company Limited, priority 2014, published 2017).

Biological target: PKC θ (Homo sapiens, UniProt Q04759)
Test: PKC θ enzyme inhibition test (TR-FRET)
Assay type: biochemical
Conditions: 1 μM test compound, well without enzyme = 100% inhibition
Protocol: PKC θ enzyme inhibitory activities of test compounds were measured by TR-FRET method. First, a test compound diluted with assay buffer (20 mM Tris-HCl (pH 7.5), 5 mM MgAcetate, 0.1 mM CaCl2, 1 mM DTT, 0.01% Tween20, 0.05% BSA, 10% PKC Activator (Millipore)) was added to 384-well plate at 2 μL each. Then, a solution diluted with assay buffer to […] of PKC θ and 1.2 μM of a fluorescence-labeled peptide substrate (Fluorescein-PKC Substrate, Life Technologies) was added by 2 μL. Then, enzyme reaction was started by adding 2 μL each of ATP solution prepared with assay buffer to 60 μM. After the reaction at room temperature for 1 hr, TR-FRET Dilution Buffer (Life Technologies) prepared to 20 mM EDTA, 0.6 nM terbium-labeled anti-phosphoserine antibody (Life Technologies) was added by 6 μL. After standing at room temperature for 1 hr, fluorescence intensity (excitation wavelength 340 nm, fluorescence wavelength 520 nm, delay time 100 microseconds) was measured by a plate reader, Envision (PerkinElmer). The inhibitory activity of each compound was calculated as relative activity value where fluorescence intensity of a well without enzyme is considered as 100% inhibition.

PKC θ, sequence (Q04759 whole entry): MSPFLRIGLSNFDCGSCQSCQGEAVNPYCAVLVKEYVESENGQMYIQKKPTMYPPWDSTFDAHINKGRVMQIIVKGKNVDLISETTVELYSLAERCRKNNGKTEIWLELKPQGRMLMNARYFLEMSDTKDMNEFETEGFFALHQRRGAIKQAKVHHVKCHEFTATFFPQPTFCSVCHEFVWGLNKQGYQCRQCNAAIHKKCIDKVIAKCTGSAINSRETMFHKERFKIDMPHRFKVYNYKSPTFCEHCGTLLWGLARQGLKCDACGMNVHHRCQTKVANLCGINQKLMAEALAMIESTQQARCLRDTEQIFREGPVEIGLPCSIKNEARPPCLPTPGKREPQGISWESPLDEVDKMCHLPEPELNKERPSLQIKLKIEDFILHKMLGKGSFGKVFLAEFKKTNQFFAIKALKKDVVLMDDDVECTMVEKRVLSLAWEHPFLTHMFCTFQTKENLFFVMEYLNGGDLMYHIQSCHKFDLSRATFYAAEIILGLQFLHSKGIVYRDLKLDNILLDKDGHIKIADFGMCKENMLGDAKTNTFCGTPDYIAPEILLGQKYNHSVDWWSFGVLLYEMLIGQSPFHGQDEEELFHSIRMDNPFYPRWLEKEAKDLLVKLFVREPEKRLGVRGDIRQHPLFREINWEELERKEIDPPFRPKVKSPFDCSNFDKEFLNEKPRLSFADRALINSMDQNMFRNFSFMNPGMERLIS

PKC θ inhibitory activity (%, 1 μM) [%] | SMILES
91 | CCOc1ccnc2[nH]c(=O)n(-c3ccc4ncc(CC)n4n3)c12 [Example 12, 7-ethoxy-1-(3-ethylimidazo[1,2b]pyridazin-6-yl)-1,3-dihydro-2H-imidazo[4,5-b]pyridin-2-one]

Same assay, conditions: 1 μM test compound, well without enzyme = 100% inhibition, read-out: PKC θ inhibitory activity (%, 1 μM)

SMILES | inhibition at 1 µM [%]
CCOc1ccnc2[nH]c(=O)n(-c3ccc4ncn(C)c4c3)c12 [Example 7, 7-ethoxy-1-(1-methyl-1H-benzimidazol-6-yl)-1,3-dihydro-2H-imidazo[4,5-b]pyridin-2-one] | 100
CCOc1ccnc2[nH]c(=O)n(-c3ccc4ncc(CC)n4c3)c12 [Example 11, 7-ethoxy-1-(3-ethylimidazo[1,2-a]pyridin-6-yl)-1,3-dihydro-2H-imidazo[4,5-b]pyridin-2-one] | 96
CCOc1ccnc2[nH]c(=O)n(-c3ccc4ncn(C)c4n3)c12 [Example 13, 7-ethoxy-3′-methyl-3′H-1,5′-biimidazo[4,5-b]pyridin-2(3H)-one] | 90
CCOc1ccnc2[nH]c(=O)n(-c3ccc4occ(C)c4c3)c12 [Example 15, 7-ethoxy-1-(3-methyl-1-benzo-furan-5-yl)-1,3-dihydro-2H-imidazo[4,5-b]pyridin-2-one] | 99
CCOc1ccnc2[nH]c(=O)n(-c3ccn4ncc(CC)c4c3)c12 [Example 17, 7-ethoxy-1-(3-ethylpyrazolo[1,5-a]pyridin-5-yl)-1,3-dihydro-2H-imidazo[4,5-b]pyridin-2-one] | 100
CCOc1ccnc2[nH]c(=O)n(-c3ccc4[nH]nc(C)c4c3)c12 [Example 18, 7-ethoxy-1-(3-methyl-1H-indazol-5-yl)-1,3-dihydro-2H-imidazo[4,5-b]pyridin-2-one] | 97
CCOc1ccnc2[nH]c(=O)n(-c3ccc4nccc(C(N)=O)c4c3)c12 [Example 27, 6-(7-ethoxy-2-oxo-2,3-dihydro-1H-imidazo[4,5-b]pyridin-1-yl)quinoline-4-carboxamide] | 90
CCOc1ccnc2[nH]c(=O)n(-c3ccc4ncnc(OC)c4c3)c12 [Example 39, 7-ethoxy-1-(4-methoxyquinazolin-6-yl)-1,3-dihydro-2H-imidazo[4,5-b]pyridin-2-one] | 102
CCOc1ccnc2[nH]c(=O)n(-c3ccc4nccc(OC)c4c3)c12 [Example 41, 7-ethoxy-1-(4-methoxyquinolin-6-yl)-1,3-dihydro-2H-imidazo[4,5-b]pyridin-2-one] | 97
CCOc1ccnc2[nH]c(=O)n(-c3ccc4nccc(OC)c4n3)c12 [Example 55, 7-ethoxy-1-(8-methoxy-1,5-naphthyridin-2-yl)-1,3-dihydro-2H-imidazo[4,5-b]pyridin-2-one] | 124

The remaining lines, values ahead:

inhibition at 1 µM [%] | SMILES
101 | CCOc1ccnc2[nH]c(=O)n(-c3ccc4nncc(OC)c4c3)c12 [Example 60, 7-ethoxy-1-(4-methoxycinnolin-6-yl)-1,3-dihydro-2H-imidazo[4,5-b]pyridin-2-one]
101 | CCOc1ccnc2[nH]c(=O)n(-c3ccc4ncc5c(c4c3)OCCO5)c12 [Example 75, 1-(2,3-dihydro[1,4]-dioxino[2,3-c]quinolin-9-yl)-7-ethoxy-1,3-dihydro-2H-imidazo[4,5-b]pyridin-2-one]
102 | CCOc1ccnc2[nH]c(=O)n(-c3ccc4nccc(N5CCNCC5)c4c3)c12 [Example 92, 7-ethoxy-1-(4-(piperazin-1-yl)quinolin-6-yl)-1,3-dihydro-2H-imidazo[4,5-b]pyridin-2-one]
94 | CCOc1cnc2ccc(-n3c(=O)[nH]c4nccc(OCC)c43)cc2n1 [Example 93, 7-ethoxy-1-(3-ethoxyquinoxalin-6-yl)-1,3-dihydro-2H-imidazo[4,5-b]pyridin-2-one]
101 | CCOc1ccnc2[nH]c(=O)n(-c3cc4c5c(cnc4cc3F)OCCO5)c12 [Example 94, 7-ethoxy-1-(8-fluoro-2,3-dihydro[1,4]dioxino[2,3-c]quinolin-9-yl)-1,3-dihydro-2H-imidazo[4,5-b]pyridin-2-one]
100 | CCOc1ccnc2[nH]c(=O)n(-c3ccc4ncc(-c5cnn(C)c5)c(OC)c4c3)c12 [Example 177, 7-ethoxy-1-(4-methoxy-3-(1-methyl-1H-pyrazol-4-yl)quinolin-6-yl)-1,3-dihydro-2H-imidazo[4,5-b]pyridin-2-one]
101 | CCOc1ccnc2[nH]c(=O)n(-c3ccc4ncc(-c5cn[nH]c5)c(OC)c4c3)c12 [Example 185, 7-ethoxy-1-(4-methoxy-3-(1H-pyrazol-4-yl)quinolin-6-yl)-1,3-dihydro-2H-imidazo[4,5-b]pyridin-2-one]
101 | COc1cnnc2ccc(-n3c(=O)[nH]c4nccc(OC5CCC5)c43)cc12 [Example 204, 7-(cyclobutyloxy)-1-(4-methoxycinnolin-6-yl)-1,3-dihydro-2H-imidazo[4,5-b]pyridin-2-one]
102 | CCOc1ccnc2[nH]c(=O)n(-c3ccc4ncc(F)c(OC)c4c3)c12 [Example 230, 7-ethoxy-1-(3-fluoro-4-methoxyquinolin-6-yl)-1,3-dihydro-2H-imidazo[4,5-b]pyridin-2-one]
